Measured values reported in patent US8338465B2, “Cyclic carboxylic acid rhodanine derivatives for the treatment and prevention of tuberculosis” (priority 2006, dated 2012).
Where two headings read alike, the source gives them in different places.

Molecular target: T1, dihydrolipoamide acyltransferase (DlaT) (Mycobacterium tuberculosis, UniProt P9WIS7)
T1 sequence (P9WIS7 1-553): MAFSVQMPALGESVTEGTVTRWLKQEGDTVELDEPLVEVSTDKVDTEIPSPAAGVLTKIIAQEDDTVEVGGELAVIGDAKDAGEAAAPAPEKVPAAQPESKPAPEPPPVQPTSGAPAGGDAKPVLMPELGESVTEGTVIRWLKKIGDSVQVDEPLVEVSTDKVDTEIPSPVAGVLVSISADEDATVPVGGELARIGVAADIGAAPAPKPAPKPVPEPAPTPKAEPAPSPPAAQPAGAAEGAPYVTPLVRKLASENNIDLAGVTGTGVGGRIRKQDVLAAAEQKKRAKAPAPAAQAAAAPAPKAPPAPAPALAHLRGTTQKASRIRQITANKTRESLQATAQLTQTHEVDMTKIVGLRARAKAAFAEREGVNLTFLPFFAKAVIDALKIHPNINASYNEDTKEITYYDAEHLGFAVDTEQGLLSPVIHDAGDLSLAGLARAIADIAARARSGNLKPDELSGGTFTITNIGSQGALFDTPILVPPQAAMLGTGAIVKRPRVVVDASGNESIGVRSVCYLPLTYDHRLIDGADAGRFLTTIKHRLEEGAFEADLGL
Assay: DlaT inhibition (Dlat IC50); DTNB peroxidase assay with Lpd, DlaT and AhpD
Type: biochemical

[1] = Table 1, Compounds A1 to A294, read-out: Dlat IC50 category

Work on “2-{5-[2-(2-Chloro-benzyloxy)-benzylidene]-4-oxo-2-thioxo-thiazolidin-3-ylamino}-benzoic acid [Compound D32]” yielded an IC50 (read-out: Dlat IC50 category) of under 10 µM.
Work on `CC(C)(C)c1ccc(-c2ccc(C=C3SC(=S)N(Nc4ccccc4C(=O)O)C3=O)o2)cc1` (single isomer, unassigned) [Compound D2, 2-{5-[1-[5-(4-tert-butyl-phenyl)-furan-2-yl]-meth-(E)-ylidene]-4-oxo-2-thioxo-thiazolidin-3-ylamino}-benzoic acid] yielded an IC50 (Dlat IC50 category) of under 10 µM.
Work on `O=C(O)c1ccccc1NN1C(=O)/C(=C\c2ccc(-c3ccc(N4CCOCC4)cc3)o2)SC1=S` (single isomer, unassigned) [Compound D6, 2-{5-[1-[5-(4-morpholin-4-yl-phenyl)-furan-2-yl]-meth-(E)-ylidene]-4-oxo-2-thioxo-thiazolidin-3-ylamino}-benzoic acid] yielded an IC50 (Dlat IC50 category) of 11 to 40 µM.
For `O=C(O)c1cccc(N2C(=O)C(=Cc3ccc(-c4cccc(C(F)(F)F)c4)o3)SC2=S)c1` [Compound A2], the IC50 [1] was under 10 µM.
Molecule `O=C(O)c1cccc(N2C(=O)C(=Cc3ccc(-c4ccc(Cc5ccccc5)cc4)o3)SC2=S)c1` [Compound A3] has an IC50 [1] of under 10 µM.
`O=C(O)c1cccc(N2C(=O)C(=Cc3ccc(-c4cccc(Cl)c4)o3)SC2=S)c1` [Compound A4] was tested, and the IC50 [1] was 11 to 40 µM.
Work on `O=C(O)c1cccc(N2C(=O)C(=Cc3cccc(-c4ccccc4Cl)n3)SC2=S)c1` [Compound A5] yielded an IC50 [1] of over 41 µM.
In the case of `NS(=O)(=O)c1ccc(N2C(=O)C(=Cc3ccc(-c4ccccc4Cl)o3)SC2=S)cc1` [Compound A6], the IC50 [1] is reported as 11 to 40 µM.
In the case of `O=C(O)c1cccc(N2C(=O)C(=Cc3ccc(-c4ccc(Cl)c(Cl)c4)o3)SC2=S)c1` [Compound A7], the IC50 [1] is reported as under 10 µM.
`O=C(O)c1ccc(N2C(=O)C(=Cc3ccc(-c4ccc(Cl)c(Cl)c4)o3)SC2=S)cc1` [Compound A8] showed an IC50 [1] of under 10 µM.
Molecule `NS(=O)(=O)c1ccc(N2C(=O)C(=Cc3ccc(-c4ccc(Cl)c(Cl)c4)o3)SC2=S)cc1` [Compound A9] has an IC50 [1] of 11 to 40 µM.
`O=C(O)c1ccc(N2C(=O)C(=Cc3ccc(-c4cccc(C(F)(F)F)c4)o3)SC2=S)cc1` [Compound A10] was tested, and the IC50 [1] was 11 to 40 µM.
For `O=C(O)c1ccc(N2C(=O)C(=Cc3ccc(-c4ccc(Cc5ccccc5)cc4)o3)SC2=S)cc1` [Compound A11], the IC50 [1] was 11 to 40 µM.
For `NS(=O)(=O)c1ccc(N2C(=O)C(=Cc3ccc(-c4ccc(Cc5ccccc5)cc4)o3)SC2=S)cc1` [Compound A12], the IC50 [1] was 11 to 40 µM.
In the case of `O=C(O)c1cccc(N2C(=O)C(=Cc3ccc(-c4ccc(Oc5ccccc5)cc4)o3)SC2=S)c1` [Compound A13], the IC50 [1] is reported as under 10 µM.
`O=C(O)c1ccc(N2C(=O)C(=Cc3ccc(-c4ccc(Oc5ccccc5)cc4)o3)SC2=S)cc1` [Compound A14] gave an IC50 [1] of 11 to 40 µM.
Work on `NS(=O)(=O)c1ccc(N2C(=O)C(=Cc3ccc(-c4ccc(Oc5ccccc5)cc4)o3)SC2=S)cc1` [Compound A15] yielded an IC50 [1] of over 41 µM.
Molecule `O=C(O)c1ccc(N2C(=O)C(=Cc3ccc(-c4ccccc4Cl)o3)SC2=S)cc1` [Compound A16] has an IC50 [1] of over 41 µM.
Work on `NS(=O)(=O)c1ccc(N2C(=O)C(=Cc3ccc(-c4ccc(Cl)cc4)o3)SC2=S)cc1` [Compound A17] yielded an IC50 [1] of 11 to 40 µM.
`NS(=O)(=O)c1ccc(N2C(=O)C(=Cc3ccc(-c4cccc(C(F)(F)F)c4)o3)SC2=S)cc1` [Compound A18] showed an IC50 [1] of 11 to 40 µM.
For `NS(=O)(=O)c1ccc(N2C(=O)C(=Cc3ccc(-c4cccc(Cl)c4)o3)SC2=S)cc1` [Compound A19], the IC50 [1] was 11 to 40 µM.
`O=C(O)c1ccc(N2C(=O)C(=Cc3ccc(-c4ccc(Cl)cc4)o3)SC2=S)cc1` [Compound A20] gave an IC50 [1] of under 10 µM.
Molecule `O=C(O)c1cccc(N2C(=O)C(=Cc3ccc(-c4ccc(Cl)cc4)o3)SC2=S)c1` [Compound A21] has an IC50 [1] of under 10 µM.
`O=C1C(=Cc2ccc(-c3ccccc3Cl)o2)SC(=S)N1c1ccc(O)cc1` [Compound A22] was tested, and the IC50 [1] was under 10 µM.
`O=C1C(=Cc2ccc(-c3cccc(C(F)(F)F)c3)o2)SC(=S)N1c1ccc(O)cc1` [Compound A23] showed an IC50 [1] of under 10 µM.
For `O=C1C(=Cc2ccc(-c3ccc(Cl)cc3)o2)SC(=S)N1c1ccc(O)cc1` [Compound A24], the IC50 [1] was under 10 µM.
`NS(=O)(=O)c1cccc(N2C(=O)C(=Cc3ccc(-c4ccccc4Cl)o3)SC2=S)c1` [Compound A25] was tested, and the IC50 [1] was 11 to 40 µM.
Work on `NS(=O)(=O)c1cccc(N2C(=O)C(=Cc3ccc(-c4cccc(C(F)(F)F)c4)o3)SC2=S)c1` [Compound A26] yielded an IC50 [1] of 11 to 40 µM.
With `NS(=O)(=O)c1cccc(N2C(=O)C(=Cc3ccc(-c4ccc(Cl)cc4)o3)SC2=S)c1` [Compound A27] the IC50 [1] was under 10 µM.
In the case of `O=C(O)c1cccc(N2C(=O)C(=Cc3cc(-c4cccc(C(F)(F)F)c4)co3)SC2=S)c1` [Compound A28], the IC50 [1] is reported as under 10 µM.
In the case of `O=C(O)c1ccc(N2C(=O)C(=Cc3cc(-c4cccc(C(F)(F)F)c4)co3)SC2=S)cc1` [Compound A29], the IC50 [1] is reported as 11 to 40 µM.
`CC(=O)NS(=O)(=O)c1ccc(N2C(=O)C(=Cc3ccc(-c4ccc(Cl)c(Cl)c4)o3)SC2=S)cc1` [Compound A30] was tested, and the IC50 [1] was under 10 µM.
Molecule `CC(=O)NS(=O)(=O)c1ccc(N2C(=O)C(=Cc3ccc(-c4cccc(C(F)(F)F)c4)o3)SC2=S)cc1` [Compound A31] has an IC50 [1] of under 10 µM.
`O=C(O)c1cc(N2C(=O)C(=Cc3ccc(-c4cccc(C(F)(F)F)c4)o3)SC2=S)ccc1O` [Compound A32] was tested, and the IC50 [1] was under 10 µM.
`O=C(O)c1cc(N2C(=O)C(=Cc3ccc(-c4ccccc4Cl)o3)SC2=S)ccc1O` [Compound A33] showed an IC50 [1] of under 10 µM.
In the case of `O=C(O)c1cc(N2C(=O)C(=Cc3ccc(-c4ccc(Cl)cc4)o3)SC2=S)ccc1O` [Compound A34], the IC50 [1] is reported as under 10 µM.
Work on `O=C(O)c1cccc(N2C(=O)C(=Cc3ccc(-c4ccc(Cl)cc4Cl)o3)SC2=S)c1` [Compound A35] yielded an IC50 [1] of 11 to 40 µM.
For `O=C(O)c1cccc(N2C(=O)C(=Cc3ccc(-c4cc(Cl)ccc4Cl)o3)SC2=S)c1` [Compound A36], the IC50 [1] was under 10 µM.
`CC(=O)NS(=O)(=O)c1cccc(N2C(=O)C(=Cc3ccc(-c4ccccc4Cl)o3)SC2=S)c1` [Compound A37] gave an IC50 [1] of 11 to 40 µM.
For `CC(=O)NS(=O)(=O)c1cccc(N2C(=O)C(=Cc3ccc(-c4cccc(C(F)(F)F)c4)o3)SC2=S)c1` [Compound A38], the IC50 [1] was under 10 µM.
`O=C(O)c1cccc(N2C(=O)C(=Cc3ccc(-c4c(Cl)cccc4Cl)o3)SC2=S)c1` [Compound A39] gave an IC50 [1] of 11 to 40 µM.
`O=C(O)c1cc(N2C(=O)C(=Cc3ccc(-c4ccc(Cl)cc4Cl)o3)SC2=S)ccc1O` [Compound A40] gave an IC50 [1] of 11 to 40 µM.
For `O=C(O)c1cc(N2C(=O)C(=Cc3ccc(-c4cc(Cl)ccc4Cl)o3)SC2=S)ccc1O` [Compound A41], the IC50 [1] was 11 to 40 µM.
Molecule `O=C(O)c1cc(N2C(=O)C(=Cc3ccc(-c4c(Cl)cccc4Cl)o3)SC2=S)ccc1O` [Compound A42] has an IC50 [1] of 11 to 40 µM.
`O=C(O)c1cccc(N2C(=O)C(=Cc3ccc(-c4cc(C(F)(F)F)ccc4Cl)o3)SC2=S)c1` [Compound A44] gave an IC50 [1] of under 10 µM.
Molecule `O=C(O)COc1ccc(N2C(=O)C(=Cc3ccc(-c4ccc(Cl)cc4)o3)SC2=S)cc1` [Compound A45] has an IC50 [1] of 11 to 40 µM.
With `CC(C)c1ccc(-c2ccc(C=C3SC(=S)N(c4cccc(C(=O)O)c4)C3=O)o2)cc1` [Compound A46] the IC50 [1] was under 10 µM.
`CC(C)c1ccc(-c2ccc(C=C3SC(=S)N(c4ccc(O)c(C(=O)O)c4)C3=O)o2)cc1` [Compound A47] showed an IC50 [1] of under 10 µM.
Molecule `O=C(O)c1cccc(N2C(=O)C(=Cc3ccc(-c4ccc(C(=O)c5ccccc5)cc4)o3)SC2=S)c1` [Compound A48] has an IC50 [1] of under 10 µM.
`O=C1C(=Cc2ccc(-c3ccccc3Cl)o2)SC(=S)N1c1cccc(O)c1` [Compound A49] showed an IC50 [1] of 11 to 40 µM.
With `O=C1C(=Cc2ccc(-c3cccc(C(F)(F)F)c3)o2)SC(=S)N1c1cccc(O)c1` [Compound A50] the IC50 [1] was 11 to 40 µM.
`O=C1C(=Cc2ccc(-c3ccc(Cl)cc3)o2)SC(=S)N1c1cccc(O)c1` [Compound A51] gave an IC50 [1] of 11 to 40 µM.
`CC(C)c1ccc(-c2ccc(C=C3SC(=S)N(c4cccc(O)c4)C3=O)o2)cc1` [Compound A52] showed an IC50 [1] of 11 to 40 µM.
`O=C(O)c1cccc(N2C(=O)C(=Cc3ccc(-c4ccc(CSc5ccccc5)cc4)o3)SC2=S)c1` [Compound A53] showed an IC50 [1] of 11 to 40 µM.
Molecule `CC(C)c1cccc(-c2ccc(C=C3SC(=S)N(c4cccc(C(=O)O)c4)C3=O)o2)c1` [Compound A54] has an IC50 [1] of under 10 µM.
`CC(C)c1cccc(-c2ccc(C=C3SC(=S)N(c4cccc(O)c4)C3=O)o2)c1` [Compound A55] was tested, and the IC50 [1] was 11 to 40 µM.
In the case of `O=C(O)c1cccc(N2C(=O)C(=Cc3ccc(-c4ccc(C5CCCCC5)cc4)o3)SC2=S)c1` [Compound A56], the IC50 [1] is reported as under 10 µM.
With `O=C(O)c1cc(N2C(=O)C(=Cc3ccc(-c4ccc(C5CCCCC5)cc4)o3)SC2=S)ccc1O` [Compound A57] the IC50 [1] was under 10 µM.
Work on `CC(C)(C)c1ccc(-c2ccc(C=C3SC(=S)N(c4cccc(C(=O)O)c4)C3=O)o2)cc1` [Compound A58] yielded an IC50 [1] of under 10 µM.
For `CC(C)(C)c1ccc(-c2ccc(C=C3SC(=S)N(c4ccc(O)c(C(=O)O)c4)C3=O)o2)cc1` [Compound A59], the IC50 [1] was under 10 µM.
`O=C(O)COc1cccc(N2C(=O)C(=Cc3ccc(-c4ccc(Cl)cc4)o3)SC2=S)c1` [Compound A60] gave an IC50 [1] of 11 to 40 µM.
`CC(C)c1cccc(-c2ccc(C=C3SC(=S)N(c4ccc(O)c(C(=O)O)c4)C3=O)o2)c1` [Compound A61] showed an IC50 [1] of under 10 µM.
`O=C(O)c1cc(N2C(=O)C(=Cc3ccc(-c4ccc(CSc5ccccc5)cc4)o3)SC2=S)ccc1O` [Compound A62] showed an IC50 [1] of 11 to 40 µM.
`CC(C)c1cccc(-c2ccc(C=C3SC(=S)N(c4cccc(OCC(=O)O)c4)C3=O)o2)c1` [Compound A63] gave an IC50 [1] of under 10 µM.
In the case of `CC(C)Cc1ccc(-c2ccc(C=C3SC(=S)N(c4cccc(C(=O)O)c4)C3=O)o2)cc1` [Compound A64], the IC50 [1] is reported as under 10 µM.
